Reference: article PMC2819846 (Mutation research, 2008)

Tests used:
Salmonella TA100 = test: Salmonella plate-incorporation mutagenicity assay, strain TA100; assay type: cell-based
strain TA100 = assay type: cell-based, Salmonella; details: TA100 liquid-suspension, 10 µg/ml
Salmonella = details: cited from earlier work
Salmonella TA104 = test: Salmonella plate-incorporation mutagenicity assay, strain TA104, with S9 mix; assay type: cell-based
[1] = system: DNA from Salmonella TA100; test: Stable DNA adducts by 32P-postlabeling in DNA of treated TA100; assay type: cell-based; details: TA100, 10 µg/ml; DMSO 0.024 ± 0.000
Salmonella TA98 = test: Salmonella plate-incorporation mutagenicity assay, strain TA98, with S9 mix; assay type: cell-based
[2] = system: DNA from Salmonella TA100; test: Abasic sites by aldehydic-site assay in DNA of treated TA100; assay type: cell-based; details: TA100, 10 µg/ml; DMSO 5.9 ± 0.33
[3] = incubation with rat liver microsomes; cited from earlier work

With c1ccc2c(c1)ccc1ccc3sccc3c12 [P[3,4-b]T, Phenanthro[3,4,-b]thiophene] as the molecule, how does the Rev/plate (Salmonella TA100; TA100 +S9, Test 2, 0.05 µg/plate, zero-dose 84/78/80) read?
Its Rev/plate is 131/124.

And the Rev/plate (Salmonella TA100; TA100 +S9, Test 2, 0.1 µg/plate, zero-dose 84/78/80)?
The Rev/plate was 120/128.

And the Rev/plate (Salmonella TA100; TA100 +S9, Test 2, 0.25 µg/plate, zero-dose 84/78/80)?
The Rev/plate was 235/243.

And the Rev/plate (Salmonella TA100; TA100 +S9, Test 2, 0.5 µg/plate, zero-dose 84/78/80)?
The Rev/plate was 389/354.

And the Rev/plate (Salmonella TA100; TA100 +S9, Test 3, 0.05 µg/plate, zero-dose 127/118/125)?
Its Rev/plate is 151/163.

And the Rev/plate (Salmonella TA100; TA100 +S9, Test 3, 0.1 µg/plate, zero-dose 127/118/125)?
Its Rev/plate is 187/201.

What about the Rev/plate (Salmonella TA100; TA100 +S9, Test 3, 0.25 µg/plate, zero-dose 127/118/125) of the same molecule?
The Rev/plate was 344/311.

What about the Rev/plate (Salmonella TA100; TA100 +S9, Test 3, 0.5 µg/plate, zero-dose 127/118/125) of the same molecule?
The Rev/plate was 450/508.

What about the Rev/plate (Salmonella TA100; TA100 +S9, Test 4, 0.05 µg/plate, zero-dose 112/140/115) of the same molecule?
Its Rev/plate is 144/123.

What about the Rev/plate (Salmonella TA100; TA100 +S9, Test 4, 0.1 µg/plate, zero-dose 112/140/115) of the same molecule?
The Rev/plate was 159/169.

And the Rev/plate (Salmonella TA100; TA100 +S9, Test 4, 0.25 µg/plate, zero-dose 112/140/115)?
The Rev/plate was 216/227.

What about the Rev/plate (Salmonella TA100; TA100 +S9, Test 4, 0.5 µg/plate, zero-dose 112/140/115) of the same molecule?
The Rev/plate was 333/364.

What about the Rev/plate (Salmonella TA100; TA100 +S9, Test 5, 0.05 µg/plate, zero-dose 102/119/99) of the same molecule?
Its Rev/plate is 136/140.

What about the Rev/plate (Salmonella TA100; TA100 +S9, Test 5, 0.1 µg/plate, zero-dose 102/119/99) of the same molecule?
The Rev/plate was 175/132.

And the Rev/plate (Salmonella TA100; TA100 +S9, Test 5, 0.25 µg/plate, zero-dose 102/119/99)?
The Rev/plate was 237/166.

And the Rev/plate (Salmonella TA100; TA100 +S9, Test 5, 0.5 µg/plate, zero-dose 102/119/99)?
Its Rev/plate is 366/305.

What about the “Mutagenic potency, Revertants/µg ± S.E., TA100” value (Salmonella TA100; plate-incorporation, +S9) of the same molecule?
The value was 550 ± 61 rev/µg.

And the “Mutagenicity call TA100” value (Salmonella TA100; plate-incorporation, +S9)?
The value was “(+) (Called mutagenic (+) based on showing reproducible, dose-related increases in rev/plate that reached or exceeded 2-fold relative to zero-dose controls)”.

What about the “Fold increase in mutant frequency relative to DMSO-treated cells” value (strain TA100) of the same molecule?
Its value is 5.3 fold.

And the “Rev/10^6 survivors” value (strain TA100; DMSO 0.8)?
The value was 4.3 Rev/10^6 survivors.

What about the Percent survival (strain TA100; DMSO 100) of the same molecule?
Its Percent survival is 24%.

And the “Reported Mutagenicity” value (Salmonella)?
Its value is “mutagenic”.

What about the Rev/plate (Salmonella TA104; TA104 +S9, Test 2, 0.5 µg/plate, zero-dose 276/260/270) of the same molecule?
The Rev/plate was 335/385.

And the Rev/plate (Salmonella TA104; TA104 +S9, Test 2, 1 µg/plate, zero-dose 276/260/270)?
The Rev/plate was 461/542.

And the Rev/plate (Salmonella TA104; TA104 +S9, Test 2, 2 µg/plate, zero-dose 276/260/270)?
Its Rev/plate is 569/553.

What about the Rev/plate (Salmonella TA104; TA104 +S9, Test 2, 5 µg/plate, zero-dose 276/260/270) of the same molecule?
The Rev/plate was 582/601.

What about the Rev/plate (Salmonella TA104; TA104 +S9, Test 3, 0.5 µg/plate, zero-dose 402/395/336) of the same molecule?
Its Rev/plate is 507/473.

And the Rev/plate (Salmonella TA104; TA104 +S9, Test 3, 1 µg/plate, zero-dose 402/395/336)?
Its Rev/plate is 571/559.

And the Rev/plate (Salmonella TA104; TA104 +S9, Test 3, 2 µg/plate, zero-dose 402/395/336)?
Its Rev/plate is 604/630.

And the Rev/plate (Salmonella TA104; TA104 +S9, Test 3, 5 µg/plate, zero-dose 402/395/336)?
Its Rev/plate is 535/679.

And the “Mutagenic potency, Revertants/µg ± S.E., TA104” value (Salmonella TA104; plate-incorporation, +S9)?
Its value is 210 ± 84 rev/µg.

What about the “Stable adducts/10^8 nucleotides ± S.E” value [1] of the same molecule?
Its value is 0.090 ± 0.007 adducts/10^8 nucleotides.

And the Rev/plate (Salmonella TA98; TA98 +S9, Test 1, 2 µg/plate, zero-dose 33/40/39)?
The Rev/plate was 81 rev/plate.

And the Rev/plate (Salmonella TA98; TA98 +S9, Test 1, 5 µg/plate, zero-dose 33/40/39)?
The Rev/plate was 80 rev/plate.

And the Rev/plate (Salmonella TA98; TA98 +S9, Test 1, 10 µg/plate, zero-dose 33/40/39)?
Its Rev/plate is 62 rev/plate.

What about the Rev/plate (Salmonella TA98; TA98 +S9, Test 1, 20 µg/plate, zero-dose 33/40/39) of the same molecule?
The Rev/plate was 54 rev/plate.

What about the Rev/plate (Salmonella TA98; TA98 +S9, Test 1, 40 µg/plate, zero-dose 33/40/39) of the same molecule?
Its Rev/plate is 60 rev/plate.

What about the Rev/plate (Salmonella TA98; TA98 +S9, Test 1, 80 µg/plate, zero-dose 33/40/39) of the same molecule?
The Rev/plate was 55 rev/plate.

What about the Rev/plate (Salmonella TA98; TA98 +S9, Test 2, 0.05 µg/plate, zero-dose 43/41/30) of the same molecule?
The Rev/plate was 30/40.

And the Rev/plate (Salmonella TA98; TA98 +S9, Test 2, 0.1 µg/plate, zero-dose 43/41/30)?
The Rev/plate was 31/33.

What about the Rev/plate (Salmonella TA98; TA98 +S9, Test 2, 0.25 µg/plate, zero-dose 43/41/30) of the same molecule?
The Rev/plate was 33/32.

What about the Rev/plate (Salmonella TA98; TA98 +S9, Test 2, 0.5 µg/plate, zero-dose 43/41/30) of the same molecule?
Its Rev/plate is 58/34.

And the Rev/plate (Salmonella TA98; TA98 +S9, Test 3, 0.05 µg/plate, zero-dose 49/50/50)?
Its Rev/plate is 57/49.

And the Rev/plate (Salmonella TA98; TA98 +S9, Test 3, 0.1 µg/plate, zero-dose 49/50/50)?
The Rev/plate was 50/51.

What about the Rev/plate (Salmonella TA98; TA98 +S9, Test 3, 0.25 µg/plate, zero-dose 49/50/50) of the same molecule?
The Rev/plate was 40/63.

And the Rev/plate (Salmonella TA98; TA98 +S9, Test 3, 0.5 µg/plate, zero-dose 49/50/50)?
The Rev/plate was 66/69.

And the “Mutagenic potency, Revertants/µg ± S.E., TA98” value (Salmonella TA98; plate-incorporation, +S9)?
The value was 0.2 ± 0.2 rev/µg.

What about the “Abasic sites/10^5 nucleotides ± S.E” value [2] of the same molecule?
Its value is 6.2 ± 0.26 sites/10^5 nucleotides.

And the “Major relatively nonpolar metabolite(s), share of the total metabolites” value [3]?
The value was 80–96%.
